Assay results as given in patent US5719287A, “Intermediates for inhibitors of HIV protease and method of preparation thereof” (Eli Lilly and Company, priority 1995, dated 1998).

Key:
HIV-1 protease [1] = molecular target: T1, HIV-1 protease (Human immunodeficiency virus type 1 group M subtype B, UniProt P04585); assay: biochemical; settings: for IC50: read-out: Fluorescence Assay IC50 (converted)
T1 construct: Purified HIV-1 protease was obtained as described below; made in house; host or cells: E. coli K12 L507/pHP10D (NRRL B-18560)
Method in brief: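 Purified recombinant HIV-1 protease from E. coli preincubated 1 h at room temperature with compound in 20% aqueous DMSO, then biotin-peptide-FITC substrate added in MES-ALB buffer for 16 h at room temperature. Cleavage measured by avidin-bead capture, fluorescence ex 485/em 535 nm.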

HIV-1 protease [2] = molecular target: T1, HIV-1 protease; assay: Western Blot Analysis of HIV Protease Inhibition Assay (HIV-1 protease produced in E. coli, processing of gag polyprotein Pr48^gag); format: biochemical; settings: yield of p17 from gag polyprotein; 30 min preincubation at room temperature, one hour at 37° C.
Protocol: The compounds of the present invention were also tested for their ability to block HIV protease processing of Pr48^gag (a recombinant polyprotein containing p 17, p24 and p7).
A. Culture of E. coli K12 L507/DHP10D
Lyophils of E. coli K12 L507/pHP10D are obtained from the Northern Regional Research Laboratory, Peoria, Ill. 61604, under the accession number NRRL B-18560 (deposited Nov. 14, 1989). The lyophils are decanted into tubes containing 10 ml LB medium (10 g Bacto-tryptone, 5 g Bacto-yeast extract, and 10 g NaCl per liter; pH is adjusted to 7.5) and incubated at 32° C., overnight.
A small portion of the overnight culture was placed on LB-agar (LB medium with 15 g/l Bacto-agar) plates containing 12.5 μg/ml tetracycline in a manner so as to obtain a single colony isolate of E. coli K12 L507/pHP10D.The single colony obtained was inoculated into 10 ml of LB medium containing 12.5 μg/ml tetracycline and incubated overnight at 32° C. with vigorous shaking. The 10 ml overnight culture was inoculated into LB medium containing 12.5 μg/ml tetracycline and incubated at 32° C. with vigorous shaking until the culture reached mid-log phase.
B. Culture of E. coli K12 L507/pHGAG
Lyophils of E. coli K12 L507/pHGAG are obtained from the NRRL under the accession number NRRL B-18561 (deposited Nov. 14, 1989). A purified colony of E. coli K 12 L507/pHGAG was isolated, and used as an inoculum for a culture which was grown to mid-log phase in substantial accordance with the teaching of Step A above for E. Coli K12 L507/pHP10D.
C. Preparation of Protease and gag fractions
A culture of E. coli K12 L507/pHP10D was grown to mid-log phase at 32° C. in LB media containing 12.5 μg/ml tetracycline. The cultivation temperature was quickly elevated to 40° C. to induce gene expression, and the cells were allowed to grow for 2.5 hours at this temperature before the culture was quickly chilled on ice. The cells were centrifuged and the cell pellet was resuspended in 20 ml 50 mmol MES buffer (pH 6.0) containing 1 mmol EDTA, 1 mmol DTT, 1 mmol PMSF, and 10% glycerol (Buffer A). Cells were lysed by sonication using a Fischer Model 300 Dismembrator and a microtip probe. […] Enzymatic activity was measured by HPLC using the synthetic peptide SQNYPIV as described in Margolin et al., Biochem. Biophys. Res. Commun., 167, 554-560 (1990); the production of the pl peptide (SQNY) was measured.
Active fractions were pooled, made 1.2M in ammonium sulfate, and applied to a hexyl agarose column (2.0×18 cm) equilibrated in Buffer A containing 1.2M ammonium sulfate. The sample, in 125 ml (1.85 mg/ml), was loaded at a flow rate of 1 ml/min at 4° C. […] The column was then washed isocratically in Buffer A for 120 min. Active fractions were pooled, concentrated to 10 ml using an Amicon stirred cell with a YM-10 membrane, and applied at 1 ml/min to a MonoS cation exchange column (1.0×10 cm) equilibrated in Buffer A. After washing isocratically for 30 min, protease was eluted using a linear gradient of 0-0.45M NaCl in Buffer A over 40 min followed by an isocratic wash with Buffer A containing 0.45M NaCl over 30 min. Chromatography was performed at 25° C.
Pooled active fractions were concentrated to 200 ul using an Amicon stirred cell and a YM-10 membrane, and the protease was then applied to a Superose 6 size exclusion column equilibrated in Buffer A containing 0.1M NaCl. The column was washed isocratically in this buffer at a flow rate of 0.5 ml/min.
QAE-Sepharose, and hexyl agarose were purchased from Sigma Chemical Company. Superose 6 and MonoS were products of Pharmacia. Buffers and reagents were obtained from Sigma.
In an analogous manner, a culture of E. coli K12 507/pHGAG was grown to mid-log phase at 32° C. then shifted to 40° C. for about 4 to 5 hours. The culture was chilled on ice and centrifuged, then the pellet was resuspended in 8 ml lysis buffer containing 5 mg/ml lysozyme.

[3] = purified HIV-1 protease, MES-ALB buffer pH 5.5, 1 h preincubation, 16 h with substrate, room temperature, IC50 values for Examples 2-70 are standardized relative to Ex 1

Compound	IC50 (HIV-1 protease [1]; [3]) [nM]	IC50 (HIV-1 protease [2]) [nM]	IC50 (HIV-1 protease [1]) [nM]	Fluorescence Assay IC50 (HIV-1 protease [1]; [3]) [ng/mL]
Cc1ccc(C[C@@H](O)[C@H](Cc2ccccc2)NC(=O)[C@H](CC(N)=O)NC(=O)c2ccc3ccccc3n2)c(C(=O)NC(C)(C)C)c1 [Example 2, [1S-(1R*, 4R*, 5S*)]-N-(1-(2-amino-2-oxoethyl)-2-oxo-3-aza-4-phenylmethyl-5-hydroxy-6-(2-(1-t-butylamino-1-oxomethyl)-4-methylphenyl)hexyl)-2-quinolinyl carboxamide]	3.37	50	–	–
Cc1cccc(C[C@@H](O)[C@H](Cc2ccccc2)NC(=O)[C@H](CC(N)=O)NC(=O)c2ccc3ccccc3n2)c1C(=O)NC(C)(C)C [Example 3, [1S-(1R*, 4R*, 5S*)]-N-(1-(2-amino-2-oxoethyl)-2-oxo-3-aza-4-phenylmethyl-5-hydroxy-6-(2-(1-t-butylamino-1-oxomethyl)-3-methylphenyl)hexyl)-2-quinolinyl carboxamide]	–	60	28.9	–
CC(C)(C)NC(=O)c1c(C[C@@H](O)[C@H](Cc2ccccc2)NC(=O)[C@H](CC(N)=O)NC(=O)c2ccc3ccccc3n2)ccc2ccccc12 [Example 4, [1S-(1R*, 4R*, 5S*)]-N-(1-(2-amino-2-oxoethyl)-2-oxo-3-aza-4-phenylmethyl-5-hydroxy-6-(1-(1-t-butylamino-1-oxomethyl)-2-naphthyl)hexyl)-2-quinolinyl carboxamide]	–	2.7	4.4	–
CCC(C)(C)NC(=O)c1ccccc1C[C@@H](O)[C@H](Cc1ccccc1)NC(=O)[C@H](CC(N)=O)NC(=O)c1ccc2ccccc2n1 [Example 8, [1S-(1R*, 4R*, 5S*)]-N-(1-(2-amino-2-oxoethyl)-2-oxo-3-aza-4-phenylmethyl-5-hydroxy-6-(2-(1-(1.1-dimethylpropylamino)-1-oxomethyl)phenyl)hexyl)-2-quinolinyl carboxamide]	–	1.5	4.81	–
CC(C)(C)NC(=O)c1ccccc1C[C@@H](O)[C@H](Cc1ccccc1)NC(=O)[C@H](CC(N)=O)NC(=O)c1nccc2ccccc12 [Example 13]	13.1	9	–	–
CC(C)(C)NC(=O)c1ccccc1C[C@@H](O)[C@H](Cc1ccccc1)NC(=O)[C@H](CC(N)=O)NC(=O)c1nc2ccccc2[nH]1 [Example 14, [1S-(1R*, 4R*, 5S*)]-N-(1-(2-amino-2-oxoethyl)-2-oxo-3-aza-4-phenylmethyl-5-hydroxy-6-(2-(1-t-butylamino-1-oxomethyl)phenyl)hexyl)-2-benzimidazolyl carboxamide]	–	100	142	–
CC(C)(C)NC(=O)c1ccccc1C[C@@H](O)[C@H](Cc1ccccc1)NC(=O)[C@H](CC(N)=O)NC(=O)COc1cccc2ccccc12 [Example 15, [2R-(2R*, 3S*, 6S*)]-N-t-butyl-2-(2-hydroxy-3-phenylmethyl-4,7-diaza-5,8,-dioxo-6-(2-amino-2-oxoethyl)-9-(naphthyloxy)nonyl)benzamide]	4.23	1.6	–	–
CC(C)[C@H](NC(=O)c1ccc2ccccc2n1)C(=O)N[C@@H](Cc1ccccc1)[C@H](O)Cc1ccccc1C(=O)NC(C)(C)C [Example 16, [1S-(1R*, 4R*, 5S*)]-N-(1-(2-propyl)-2-oxo-3-aza-4-phenylmethyl-5-hydroxy-6-(2-(1-t-butylamino-1-oxomethyl)phenyl)hexyl)-2-quinolinyl carboxamide]	–	1	57.2	–
[1S-(1R*, 4R*, 5S*)]-N-(1-(2-amino-2-oxoethyl)-2-oxo-3-aza-4-phenylmethyl-5-hydroxy-6-(2- (1-t-butylamino-1-oxomethyl)phenyl)hexyl)-2(6, 7, 8, 9-tetrahydronaphthyl) carboxamide [Example 33]	–	–	–	1.4

Further lines, results first:

IC50 (HIV-1 protease [1]; [3]) [nM]	IC50 (HIV-1 protease [2]) [nM]	IC50 (HIV-1 protease [1]) [nM]	Fluorescence Assay IC50 (HIV-1 protease [1]; [3]) [ng/mL]	Compound
–	0.5	1.9	–	CC(C)(C)NC(=O)c1ccccc1C[C@@H](O)[C@H](Cc1ccccc1)NC(=O)[C@H](Cc1cnc[nH]1)NC(=O)c1ccc2ccccc2n1 [Example 17, [1S-(1R*, 4R*. 5S*)]-N-(1-(4-imidazolylmethyl)-2-oxo-3-aza-4-phenylmethyl-5-hydroxy-6-(2-(1-t-butylamino-1-oxomethyl)phenyl)hexyl)-2-quinolinyl carboxamide]
–	–	0.23	–	CC(C)c1ccc(C(=O)NC(C)(C)C)c(C[C@@H](O)[C@H](Cc2ccccc2)NC(=O)[C@H](CC(N)=O)NC(=O)c2ccc3ccccc3n2)c1 [Example 68, [1S-(1R*, 4R*, 5S,)]-N-(1-(2-amino-2-oxoethyl)-2-oxo-3-aza-4-phenylmethyl-5-hydroxy-6-(2-(1-t-butylamino-1-oxomethyl)-5-isopropylphenyl)hexyl)-2-quinolinyl carboxamide]
–	–	1.2	–	CC1(NC(=O)c2ccccc2C[C@@H](O)[C@H](Cc2ccccc2)NC(=O)[C@H](CC(N)=O)NC(=O)c2ccc3ccccc3n2)CCCC1 [Example 69, [1S-(1R*, 4R*, 5S*) ]-N-(1-(2-amino-2-oxoethyl) -2-oxo-3-aza-4-phenylmethyl-5-hydroxy-6-(2-(1-(1-methylcyclopent-1-yl)amino-1-oxomethyl)phenyl)hexyl)-2-quinolinyl carboxamide]
–	–	0.785	–	CC(C)(C)NC(=O)c1ccccc1C[C@@H](O)[C@H](Cc1ccccc1)NC(=O)[C@H](CC(=O)NCc1c[nH]c2ccccc12)NC(=O)c1ccc2ccccc2n1 [Example 70, [1S-(1R*, 4R*, 5*)]-N-(1-(2-(N-indol-3-ylmethyl)amino)-2-oxoethyl)-2-oxo-3-aza-4-phenylmethyl-5-hydroxy-6-(2-(1-t-butylamino-1-oxomethyl)phenyl)hexyl)-2-quinolinyl carboxamide]
